We go through 14 compounds from patent US20260224536A1, “ARYL HETEROCYCLIC KV1.3 INHIBITOR, PREPARATION METHOD THEREFOR, AND USE THEREOF” (SHANGHAI SHENSHI WISE TECHNOLOGY CO., LTD., priority 2022, published 2026).

As usually defined, the pIC50 is the IC50 on a negative log10 scale, so that one unit is a factor of ten. Read a high pIC50 as a small IC50.

pIC50: −log10 of the molar value.

Kv1.3 potassium channel, sequence (P22001 whole entry): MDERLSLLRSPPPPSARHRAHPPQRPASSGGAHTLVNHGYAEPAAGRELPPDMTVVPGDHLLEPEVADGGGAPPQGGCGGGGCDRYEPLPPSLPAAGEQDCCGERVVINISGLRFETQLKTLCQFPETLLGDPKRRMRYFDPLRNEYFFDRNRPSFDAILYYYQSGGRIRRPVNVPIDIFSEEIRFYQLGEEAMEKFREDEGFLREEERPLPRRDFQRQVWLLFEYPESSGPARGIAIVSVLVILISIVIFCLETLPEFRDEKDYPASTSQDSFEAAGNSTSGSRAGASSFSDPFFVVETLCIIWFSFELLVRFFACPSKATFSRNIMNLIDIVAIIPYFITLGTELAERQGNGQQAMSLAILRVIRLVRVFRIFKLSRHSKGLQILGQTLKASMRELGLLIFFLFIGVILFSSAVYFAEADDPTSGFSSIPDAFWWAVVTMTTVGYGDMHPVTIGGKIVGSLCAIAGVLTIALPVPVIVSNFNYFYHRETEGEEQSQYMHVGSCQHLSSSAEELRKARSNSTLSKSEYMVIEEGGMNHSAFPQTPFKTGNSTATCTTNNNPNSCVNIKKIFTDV

This test concerns the target Kv1.3 potassium channel (Homo sapiens, UniProt P22001). Put plainly: Whole-cell patch-clamp assay for inhibitory activity against Kv1.3 (peak current). The class given is cell-based. To be noted: HEK293 cells stably expressing Kv1.3, patch-clamp. From the text:
The voltage stimulation protocol for recording whole-cell Kv1.X potassium currents via patch-clamp was as follows. After formation of a whole-cell seal, the cell membrane voltage was clamped at −80 mV, and then stepped to +40 mV for 500 ms. […] The test data were acquired by EPC-10 amplifier (HEKA) and stored in the PatchMaster (HEKA) software. Recording electrodes were drawn from capillary glass tubes using a microelectrode puller. Under an inverted microscope, the recording electrode was brought into contact with the cell surface by manipulating a microelectrode manipulator. Negative-pressure suction was applied to form a GΩ seal. After formation of the […], a rapid capacitance compensation was given. The application of negative pressure was continued to rupture the cell membrane, forming a whole-cell recording mode. Then, a slow capacitance compensation was given, and the membrane capacitance and series resistance were recorded. No current leakage compensation was provided. Once the whole-cell recorded Kv1.X current stabilized, drug administration was started. Each drug concentration was allowed to act for 5 min (or until the current reached a steady state) before the next concentration was tested. Multiple concentrations were tested for each test compound. The cover glass plated with the cells was placed in a recording bath of the inverted microscope. The test compound and the compound-free extracellular fluid were allowed to sequentially flow through the recording bath from low concentrations to high concentrations using a gravity perfusion method, thus acting on the cells, and liquid exchange was performed using a vacuum pump during recording. For each cell, the current detected in the compound-free extracellular liquid was used as its own control group. The test was independently repeated three times using at least three cells per concentration. All electrophysiological experiments were performed at room temperature. […] First, the peak current after the action of each drug concentration and the peak current of the blank control were standardized and then the inhibition rate corresponding to each drug concentration was calculated Subsequently, the mean, standard deviation (SD), and standard error (SE) were calculated for the inhibition rate corresponding to each concentration. Using the above equation, the IC50 value for each compound was calculated, and the dose-dependent effect was subjected to non-linear fitting, where IC50 is the half maximal inhibitory concentration. The IC50 calculation and the curve fitting were performed using the GraphPad Prism software.
(The patch-clamp technique gives a direct electrical read-out from membranes.)
Consider `Cn1cc(-c2nnc3n2C[C@H](c2c(O)ccc(Cl)c2Cl)C3)ccc1=O` [Example 38, (S)-5-(6-(2,3-Dichloro-6-hydroxyphenyl)-6,7-dihydro-5H-pyrrolo[2,1-c][1,2,4]triazol-3-yl)-1-methylpyridin-2(1H)-one], for which the pIC50 is 7.37. For `Cn1ccc(-c2nnc3n2C[C@H](c2c(O)ccc(Cl)c2Cl)C3)cc1=O` [Example 39, (S)-4-(6-(2,3-Dichloro-6-hydroxyphenyl)-6,7-dihydro-5H-pyrrolo[2,1-c][1,2,4]triazol-3-yl)-1-methylpyidin-2(1H)-one], the pIC50 was 7.28. The pIC50 values of the last two compounds are within 0.2 log units of each other.

For the compound `Cn1cc(-c2nnc3n2C[C@H](c2c(O)ccc(Cl)c2Cl)C3)cn1` [Example 40, (S)-3,4-Dichloro-2-(3-(1-methyl-1H-pyrazol-4-yl)-6,7-dihydro-5H-pyrrolo[2,1-c][1,2,4]triazol-6-yl)phenol], the pIC50 was 7.97. Compared with the last compound, the pIC50 is 0.69 log units higher. Take `Oc1ccc(Cl)c(Cl)c1[C@@H]1Cc2nnc(-c3cccc4[nH]ncc34)n2C1` [Example 41, (S)-2-(3-(1H-Indazol-4-yl)-6,7-dihydro-5H-pyrrolo[2,1-c][1,2,4]triazol-6-yl)-3,4-dichlorophenol]: the pIC50 was 7.62. This pIC50 lies 0.35 log units lower than the previous one.

For `Nc1ccc(-c2nnc3n2C[C@H](c2c(O)ccc(Cl)c2Cl)C3)cn1` [Example 42, (S)-2-(3-(6-Aminopyridin-3-yl)-6,7-dihydro-5H-pyrrolo[2,1-c][1,2,4]triazol-6-yl)-3,4-dichlorophenol], the pIC50 was 7.89. Compared with the last compound, the pIC50 is 0.27 log units higher. In turn, `Nc1cc(-c2nnc3n2C[C@H](c2c(O)ccc(Cl)c2Cl)C3)ccn1` [Example 43, (S)-2-(3-(2-Aminopyridin-4-yl)-6,7-dihydro-5H-pyrrolo[2,1-c][1,2,4]triazol-6-yl)-3,4-dichlorophenol] had a pIC50 of 7.71. This pIC50 and that of the compound before are within 0.2 log units of each other. `OCCn1cc(-c2nnc3n2C[C@H](c2c(O)ccc(Cl)c2Cl)C3)cn1` [Example 44, (S)-3,4-Dichloro-2-(3-(1-(2-hydroxyethyl)-1H-pyrazol-4-yl)-6,7-dihydro-5H-pyrrolo[2,1-c][1,2,4]triazol-6-yl)phenol] gave a pIC50 of 8.09. In turn, `Oc1ccc(Cl)c(Cl)c1[C@@H]1Cc2nnc(C3CNC3)n2C1` [Example 45, (S)-2-(3-(Azetidin-3-yl)-6,7-dihydro-5H-pyrrolo[2,1-c][1,2,4]triazol-6-yl)-3,4-dichlorophenol] gave a negative logarithm of the IC50 (pIC50) of 8.82. In turn, `Oc1ccc(Cl)c(Cl)c1[C@@H]1Cc2nnc(-c3cn[nH]c3)n2C1` [Example 46, (S)-2-(3-(1H-Pyrazol-4-yl)-6,7-dihydro-5H-pyrrolo[2,1-c][1,2,4]triazol-6-yl)-3,4-dichlorophenol] showed a pIC50 of 8.29. The figure for `Oc1ccc(Cl)c(Cl)c1[C@@H]1Cc2nnc([C@H]3CCNC3)n2C1` [Example 47, 3,4-Dichloro-2-((S)-3-((S)-pyrrolidin-3-yl)-6,7-dihydro-5H-pyrrolo[2,1-c][1,2,4]triazol-6-yl)phenol] is 8.89. `Oc1ccc(Cl)c(Cl)c1[C@@H]1Cc2nnc([C@@H]3CCNC3)n2C1` [Example 48, 3,4-dichloro-2-((S)-3-((R)-pyrrolidin-3-yl)-6,7-dihydro-5H-pyrrolo[2,1-c][1,2,4]triazol-6-yl)phenol] had a pIC50 of 8.07. `CN1CCC(c2nnc3n2C[C@H](c2c(O)ccc(Cl)c2Cl)C3)C1` (stereo partly drawn) [Example 49, 3,4-Dichloro-2-((6S)-3-(1-methylpyrrolidin-3-yl)-6,7-dihydro-5H-pyrrolo[2,1-c][1,2,4]triazol-6-yl)phenol]: the negative-log IC50 (pIC50) is 8.44. `COC(=O)N1CC[C@@H](c2nnc3n2C[C@H](c2c(O)ccc(Cl)c2Cl)C3)C1` [Example 51, methyl (R)-3-((S)-6-(2,3-dichloro-6-hydroxyphenyl)-6,7-dihydro-5H-pyrrolo[2,1-c][1,2,4]triazol-3-yl)pyrrolidine-1-carboxylate] showed a pIC50 of 8.14. In turn, `O=C1C[C@@H](c2nnc3n2C[C@H](c2c(O)ccc(Cl)c2Cl)C3)CN1` [Example 52, (R)-4-((S)-6-(2.3-Dichloro-6-hydroxyphenyl)-6,7-dihydro-5H-pyrrolo[2,1-c][1,2,4]triazol-3-yl)pyrrolidin-2-one] gave a pIC50 of 7.85.
